Measurements from patent publication US10988741B2, “Mutated genes for the catalytic protein of Oplophorus luciferase and use thereof” (JNC CORPORATION, priority 2014, dated 2021).

Experiments:
[1] = reported in the literature (Patent Document 2, Non-Patent Documents 5 and 6); cited from earlier work
[2] = Luminescence activity of nanoKAZ mutants secreted into culture medium from CHO-K1 cells using secretory signal peptide sequence; assay type: biochemical; details: substrate furimazine, with secretory signal peptide, nanoKAZ with CTZ = 1.0
Description: (§1) Chinese hamster ovary cell line CHO-K1 was cultured in Ham's F-12 medium (manufactured by Wako Pure Chemical Industries, Ltd.) supplemented with 10% (v/v) fetal bovine serum (manufactured by Biowest Inc.). The CHO-K1 cells were seeded in a 6-well plate in 2×10^5 cells/well/2 mL medium (n=2) and cultured in an incubator at 37° C. in 5% (v/v) CO2. After 24 hours, the purified recombinant plasmid was transfected to CHO-K1 cells using a FuGene HD transfection kit (manufactured by Promega Corp.) and the cells were provided for subsequent experiment. Specifically, 1 μg of the recombinant plasmid, 0.1 μg of the internal standard vector pGL4.13 [Luc2/sv40] and 3.3 μL of FuGene HD were added to 100 μL of the medium and allowed to stand at room temperature for 15 minutes. […]
Luminescence activity was measured for 60 seconds using a luminometer (manufactured by Atto Inc.: AB2200); the maximum intensity of luminescence (Imax) and the integrated values for 60 seconds within parentheses in terms of relative intensity of luminescence are shown in TABLE 3.
(§2) Luminescence activity of the nanoKAZ mutants secreted into the culture medium from animal cultured cells using the secretory signal peptide sequence was measured by the method described in EXAMPLE 9. […] The nanoKAZ-AQQL mutant is secretable protein and can use coelenterazine as the most efficient substrate for the luminescence reaction.

[3] = Luminescence activity of ZZ-fused nanoKAZ mutants expressed in E. coli (soluble fraction); assay type: biochemical; details: nanoKAZ with CTZ = 1.0
Description: The E. coli BL21 strain (manufactured by Novagen) was used as a host cell. The strain was cultured in 10 mL of Luria-Bertani medium containing ampicillin (50 μg/mL) at 37° C. for 18 hours. The seed culture was inoculated to 10 mL of LB medium and incubated for 3 hours, followed by cooling in an ice-water bath for 1 hour. IPTG was added to the culture medium at a final concentration of 0.2 mM, followed by incubation at 15° C. for further 20 hours. The E. coli cells were collected from 1 mL of the culture medium by centrifugation. The collected E. coli cells were suspended in 0.5 mL of 50 mM Tris-HCl (pH 7.6) containing 10 mM EDTA (manufactured by Wako Pure Chemical Industries, Ltd.). The cells were disrupted by sonication for 5 seconds using a Branson Model 250 Sonifire. The cells were subjected to high-speed centrifugation to recover 0.5 mL of the supernatant as a soluble fraction containing the ZZ-fused nanoKAZ mutant. This soluble fraction, 5 μL, was subjected to SDS-PAGE electrophoresis to confirm expression of the proteins. In FIG. 2, numerals 1 to 5 represent as follows: 1: molecular weight size markers; 2: nanoKAZ, 3: nanoKAZ-AQQL, 4: nanoKAZ-KVA, 5: nanoKAZ-FLM. The results in FIG. 2 reveal that each mutated nanoKAZ protein was expressed in E. coli as soluble proteins at the same expression level as in nanoKAZ.
After 5 μL of the soluble fraction solution obtained in EXAMPLE 3 was added to 100 μL of 50 mM Tris-HCl (pH 7.6)-10 mM EDTA containing 1 μg of coelenterazine (manufactured by JNC Corp.) or its analogue, a luminescence reaction was started. Luminescence activity was measured for 60 seconds using a luminometer (manufactured by Atto Inc.: AB2200). The relative maximum intensity of luminescence (Imax) and the integrated values for 60 seconds within parentheses in terms of relative intensity of luminescence are shown in TABLE 2.
The coelenterazine analogues used for substrate specificity studies were synthesized by the methods described in publications, respectively. Specifically, bis-coelenterazine was synthesized by the method described in Nakamura et al. (1997) Tetrahedron Lett. 38: 6405-6406, furimazine by the method described in Hall et al. (2012) ACS Chem. Biol. […], h-coelenterazine by the method described in Inouye et al (2010) Anal. Biochem. 407:247-252 and 6h-coelenterazine and 6h-f-coelenterazine by the method described in Inouye et al (2013) Biochem. Biophys. Res. Commun. 437: 23-28. f-coelenterazine was purchased from Prolume Ltd. Luminescence activity of the ZZ-fused nanoKAZ mutants was measured by the method described in EXAMPLE 4.

[4] = Luminescence activity of nanoKAZ mutants secreted into culture medium from CHO-K1 cells using secretory signal peptide sequence; assay type: biochemical; details: nanoKAZ with CTZ = 1.0
Description: Chinese hamster ovary cell line CHO-K1 was cultured in Ham's F-12 medium (manufactured by Wako Pure Chemical Industries, Ltd.) supplemented with 10% (v/v) fetal bovine serum (manufactured by Biowest Inc.). The CHO-K1 cells were seeded in a 6-well plate in 2×10^5 cells/well/2 mL medium (n=2) and cultured in an incubator at 37° C. in 5% (v/v) CO2. After 24 hours, the purified recombinant plasmid was transfected to CHO-K1 cells using a FuGene HD transfection kit (manufactured by Promega Corp.) and the cells were provided for subsequent experiment. Specifically, 1 μg of the recombinant plasmid, 0.1 μg of the internal standard vector pGL4.13 [Luc2/sv40] and 3.3 μL of FuGene HD were added to 100 μL of the medium and allowed to stand at room temperature for 15 minutes. Subsequently, 100 μL of the DNA-FuGene complex solution was added to the cells in the 6-well plate. After incubation for 46 hours, the culture medium was collected.
(§3) The crude enzyme solution, 5 μl, obtained in EXAMPLE 8 was added to 100 μl of 30 mM Tris-HCl (pH 7.6)-10 mM EDTA (Wako Pure Chemical Industries, Ltd.) containing 1 μg of coelenterazine (manufactured by JNC Corp.), and the luminescence reaction was started. Luminescence activity was measured for 60 seconds using a luminometer (manufactured by Atto Inc.: AB2200); the maximum intensity of luminescence (Imax) and the integrated values for 60 seconds within parentheses in terms of relative intensity of luminescence are shown in TABLE 3.
as §2

[5] = Luminescence activity of nanoKAZ mutants in culture medium of CHO-K1 cells without secretory signal peptide sequence; assay type: biochemical; details: substrate coelenterazine (CTZ), nanoKAZ = 1.0
Description: as §1, with “experiment.” for “experiment. Specifically, 1 μg of the recombinant plasmid, 0.1 μg of the internal standard vector pGL4.13 [Luc2/sv40] and 3.3 μL of FuGene HD were added to 100 μL of the medium and allowed to stand at room temperature for 15 minutes.”
as §3
Luminescence activity of the nanoKAZ mutants in culture medium, which were secreted from animal culture cells without using a secretory signal peptide sequence, was measured by the method described in EXAMPLE 9. […]

[6] = substrate 6h-coelenterazine, with secretory signal peptide
[7] = substrate 6h-f-coelenterazine, with secretory signal peptide
[8] = substrate bis-coelenterazine, with secretory signal peptide
[9] = substrate coelenterazine (CTZ), with Gaussia luciferase secretory signal peptide
[10] = substrate f-coelenterazine, with secretory signal peptide
[11] = substrate h-coelenterazine, with secretory signal peptide

nanoKAZ: known mutated 19 kDa catalytic protein of Oplophorus luciferase with 16 amino acid mutations; amino acid sequence SEQ ID NO: 2
luminescence activity, fold higher than that of native 19 kDa protein [1]: approximately 10 fold
Relative maximum intensity of luminescence Imax [2]: 5.9
integrated values of relative intensity of luminescence for 1 min [2]: (6.2)
Relative maximum intensity of luminescence Imax ([3]; substrate 6h-coelenterazine): 0.6
integrated values of relative intensity of luminescence for 1 min ([3]; substrate 6h-coelenterazine): (0.4)
Relative maximum intensity of luminescence Imax ([3]; substrate 6h-f-coelenterazine): 7.9
integrated values of relative intensity of luminescence for 1 min ([3]; substrate 6h-f-coelenterazine): (4.6)
Relative maximum intensity of luminescence Imax ([3]; substrate bis-coelenterazine): 9.0
integrated values of relative intensity of luminescence for 1 min ([3]; substrate bis-coelenterazine): (6.3)
Relative maximum intensity of luminescence Imax ([3]; substrate coelenterazine (CTZ)): 1.0
integrated values of relative intensity of luminescence for 1 min ([3]; substrate coelenterazine (CTZ)): (1.0)
Relative maximum intensity of luminescence Imax ([3]; substrate f-coelenterazine): 20.2
integrated values of relative intensity of luminescence for 1 min ([3]; substrate f-coelenterazine): (10.0)
Relative maximum intensity of luminescence Imax ([3]; substrate furimazine): 4.8
integrated values of relative intensity of luminescence for 1 min ([3]; substrate furimazine): (3.7)
Relative maximum intensity of luminescence Imax ([3]; substrate h-coelenterazine): 14.2
integrated values of relative intensity of luminescence for 1 min ([3]; substrate h-coelenterazine): (7.4)
Relative maximum intensity of luminescence Imax [4, 6]: 0.8
integrated values of relative intensity of luminescence for 1 min [4, 6]: (0.7)
Relative maximum intensity of luminescence Imax [4, 7]: 11.7
integrated values of relative intensity of luminescence for 1 min [4, 7]: (11.8)
Relative maximum intensity of luminescence Imax [4, 8]: 11.1
integrated values of relative intensity of luminescence for 1 min [4, 8]: (11.1)
Relative maximum intensity of luminescence Imax [4, 9]: 1.0
integrated values of relative intensity of luminescence for 1 min [4, 9]: (1.0)
Relative maximum intensity of luminescence Imax [4, 10]: 21.6
integrated values of relative intensity of luminescence for 1 min [4, 10]: (12.2)
Relative maximum intensity of luminescence Imax [4, 11]: 16.4
integrated values of relative intensity of luminescence for 1 min [4, 11]: (9.9)
Relative maximum intensity of luminescence Imax [5]: 1.0 (1.0)
integrated values of relative intensity of luminescence for 1 min [5]: 1.0 (1.0)
